Data taken from patent publication US20230398130A1, “METHODS AND COMPOSITIONS FOR DIFFERENTIATING STEM CELLS” (Massachusetts Institute of Technology, priority 2020, published 2023).

Columns and labels:
ISC-enriched organoids [1] = experiment: Primary screen, 384-well 2.5-D organoid differentiation (ENR+CD, 6 days): basal lysozyme secretion (LYZ.NS); format: cell-based, murine; conditions: primary screen; for Dose.FC.LYZ.NS: FC vs plate median; for Z.LYZ.NS: standard z score; for SSMD.LYZ.NS: strictly standardized mean difference; for Dose.FC.LYZ.NS (log 2 fold change): vs plate median
Source text: (§1) High-throughput screening.

ISC-enriched organoids [2] = experiment: Primary screen, 384-well 2.5-D organoid differentiation (ENR+CD, 6 days): carbachol-induced lysozyme secretion (LYZ.S); format: cell-based, murine; conditions: primary screen; for Dose.FC.LYZ.S: FC vs plate median; for Z.LYZ.S: standard z score; for SSMD.LYZ.S: strictly standardized mean difference; for Dose.FC.LYZ.S (log 2 fold change): vs plate median
Source text: as §1

ISC-enriched organoids [3] = experiment: Primary screen, 384-well 2.5-D organoid differentiation (ENR+CD, 6 days, Target Selective Inhibitor Library, vs whole-plate median): ATP (CellTiter-Glo 3D, CTG); conditions: for Dose.FC.CTG: FC vs plate median; for SSMD.CTG: strictly standardized mean difference; for Dose.FC.CTG (log 2 fold change): vs plate median
[4] = 1st of the 4 dose lines of the treatment (dose not given)
[5] = 2nd of the 4 dose lines of the treatment (dose not given)
[6] = 3rd of the 4 dose lines of the treatment (dose not given)
[7] = 4th of the 4 dose lines of the treatment (dose not given)
[8] = Dose 0.08 uM, primary screen, standard z score
[9] = Dose 0.40 uM, primary screen, standard z score
[10] = Dose 2.00 uM, primary screen, standard z score
[11] = Dose 10.00 uM, primary screen, standard z score
[12] = primary screen, 1st of the 4 dose lines of the treatment (dose not given)
[13] = primary screen, 2nd of the 4 dose lines of the treatment (dose not given)
[14] = primary screen, 3rd of the 4 dose lines of the treatment (dose not given)
[15] = primary screen, 4th of the 4 dose lines of the treatment (dose not given)

Compound	Dose.FC.LYZ.NS (ISC-enriched organoids [1]; Dose 0.08 uM) [log 2 fold change]	Z.LYZ.NS (ISC-enriched organoids [1]; Dose 0.08 uM)	Dose.FC.LYZ.NS (ISC-enriched organoids [1]; Dose 0.40 uM) [log 2 fold change]	Z.LYZ.NS (ISC-enriched organoids [1]; Dose 0.40 uM)	SSMD.LYZ.NS (ISC-enriched organoids [1]; [4])	SSMD.LYZ.NS (ISC-enriched organoids [1]; [5])	SSMD.LYZ.NS (ISC-enriched organoids [1]; [6])	SSMD.LYZ.NS (ISC-enriched organoids [1]; [7])	Z.LYZ.S (ISC-enriched organoids [2]; [4])	Z.LYZ.S (ISC-enriched organoids [2]; [5])	Z.LYZ.S (ISC-enriched organoids [2]; [6])	Z.LYZ.S (ISC-enriched organoids [2]; [7])	SSMD.LYZ.S (ISC-enriched organoids [2]; [4])	SSMD.LYZ.S (ISC-enriched organoids [2]; [5])	SSMD.LYZ.S (ISC-enriched organoids [2]; [6])	SSMD.LYZ.S (ISC-enriched organoids [2]; [7])	SSMD.CTG (ISC-enriched organoids [3]; [12])	SSMD.CTG (ISC-enriched organoids [3]; [13])	SSMD.CTG (ISC-enriched organoids [3]; [14])	SSMD.CTG (ISC-enriched organoids [3]; [15])	also measured
CC(C)CCNC(=O)[C@H](CC(C)C)NC(=O)[C@H]1O[C@@H]1C(=O)O [Loxistatin Acid (E-64C)]	0.147	1.283	0.061	0.534	0.757	0.330	0.411	0.027	0.808	0.677	0.238	0.138	0.833	0.449	0.159	0.141	0.218	0.402	0.176	0.270	Dose.FC.LYZ.NS (ISC-enriched organoids [1]; Dose 2.00 uM): 0.055 log 2 fold change; Z.LYZ.NS (ISC-enriched organoids [1]; Dose 2.00 uM): 0.482; Dose.FC.LYZ.NS (ISC-enriched organoids [1]; Dose 10.00 uM): 0.004 log 2 fold change; Z.LYZ.NS (ISC-enriched organoids [1]; Dose 10.00 uM): 0.031; Dose.FC.LYZ.S (ISC-enriched organoids [2]; Dose 0.08 uM): 0.125 log 2 fold change; Dose.FC.LYZ.S (ISC-enriched organoids [2]; Dose 0.40 uM): 0.105 log 2 fold change; Dose.FC.LYZ.S (ISC-enriched organoids [2]; Dose 2.00 uM): 0.037 log 2 fold change; Dose.FC.LYZ.S (ISC-enriched organoids [2]; Dose 10.00 uM): 0.021 log 2 fold change; Dose.FC.CTG (ISC-enriched organoids [3]; Dose 0.08 uM, primary screen): 0.086 log 2 fold change; Z.CTG (ISC-enriched organoids [3]; [8]): 0.206; Dose.FC.CTG (ISC-enriched organoids [3]; Dose 0.40 uM, primary screen): 0.156 log 2 fold change; Z.CTG (ISC-enriched organoids [3]; [9]): 0.373; Dose.FC.CTG (ISC-enriched organoids [3]; Dose 2.00 uM, primary screen): 0.080 log 2 fold change; Z.CTG (ISC-enriched organoids [3]; [10]): 0.191; Dose.FC.CTG (ISC-enriched organoids [3]; Dose 10.00 uM, primary screen): 0.094 log 2 fold change; Z.CTG (ISC-enriched organoids [3]; [11]): 0.224
O=C(Nc1cc(C(F)(F)F)cc(C(F)(F)F)c1)c1cc(Cl)ccc1O [IMD 0354]	0.004	0.035	0.101	0.880	0.021	0.439	0.612	−0.729	−0.303	0.281	0.534	−0.826	−0.335	0.203	0.537	−0.736	−0.019	0.258	0.274	−0.748	Dose.FC.LYZ.NS (ISC-enriched organoids [1]; Dose 2.00 uM): 0.097 log 2 fold change; Z.LYZ.NS (ISC-enriched organoids [1]; Dose 2.00 uM): 0.847; Dose.FC.LYZ.NS (ISC-enriched organoids [1]; Dose 10.00 uM): −0.089 log 2 fold change; Z.LYZ.NS (ISC-enriched organoids [1]; Dose 10.00 uM): −0.777; Dose.FC.LYZ.S (ISC-enriched organoids [2]; Dose 0.08 uM): −0.047 log 2 fold change; Dose.FC.LYZ.S (ISC-enriched organoids [2]; Dose 0.40 uM): 0.043 log 2 fold change; Dose.FC.LYZ.S (ISC-enriched organoids [2]; Dose 2.00 uM): 0.083 log 2 fold change; Dose.FC.LYZ.S (ISC-enriched organoids [2]; Dose 10.00 uM): −0.128 log 2 fold change; Dose.FC.CTG (ISC-enriched organoids [3]; Dose 0.08 uM, primary screen): −0.007 log 2 fold change; Z.CTG (ISC-enriched organoids [3]; [8]): −0.017; Dose.FC.CTG (ISC-enriched organoids [3]; Dose 0.40 uM, primary screen): 0.117 log 2 fold change; Z.CTG (ISC-enriched organoids [3]; [9]): 0.280; Dose.FC.CTG (ISC-enriched organoids [3]; Dose 2.00 uM, primary screen): 0.076 log 2 fold change; Z.CTG (ISC-enriched organoids [3]; [10]): 0.181; Dose.FC.CTG (ISC-enriched organoids [3]; Dose 10.00 uM, primary screen): −0.480 log 2 fold change; Z.CTG (ISC-enriched organoids [3]; [11]): −1.146
Nc1nc(CC(=O)Nc2ccc(CCNC[C@H](O)c3ccccc3)cc2)cs1 [Mirabegron]					1.039	−0.280	−0.346	0.113	0.958	−0.103	−0.317	−0.065	0.863	−0.090	−0.363	−0.064	0.101	−0.380	0.068	−0.150	Z.CTG (ISC-enriched organoids [3]; Dose 0.08 uM, standard z score of FC): 0.069; Z.CTG (ISC-enriched organoids [3]; Dose 0.40 uM, standard z score of FC): −0.801; Z.CTG (ISC-enriched organoids [3]; Dose 2.00 uM, standard z score of FC): 0.046; Z.CTG (ISC-enriched organoids [3]; Dose 10.00 uM, standard z score of FC): −0.123
CO[C@H]1C[C@@H]2CC[C@@H](C)[C@@](O)(O2)C(=O)C(=O)N2CCCC[C@H]2C(=O)O[C@H]([C@H](C)C[C@@H]2CC[C@@H](OP(C)(C)=O)[C@H](OC)C2)CC(=O)[C@H](C)/C=C(\C)[C@@H](O)[C@@H](OC)C(=O)[C@H](C)C[C@H](C)/C=C/C=C/C=C/1C [Ridaforolimus (Deforolimus, MK-8669)]																					Z.LYZ.NS (standard z score) (ISC-enriched organoids [1]; Dose 0.08 uM): 0.041; Dose.FC.LYZ.NS (log 2 fold change) (ISC-enriched organoids [1]; Dose 0.08 uM): 0.005; Z.LYZ.NS (standard z score) (ISC-enriched organoids [1]; Dose 0.40 uM): 1.012; Dose.FC.LYZ.NS (log 2 fold change) (ISC-enriched organoids [1]; Dose 0.40 uM): 0.116; Z.LYZ.NS (standard z score) (ISC-enriched organoids [1]; Dose 2.00 uM): 0.646; Dose.FC.LYZ.NS (log 2 fold change) (ISC-enriched organoids [1]; Dose 2.00 uM): 0.074; Z.LYZ.NS (standard z score) (ISC-enriched organoids [1]; Dose 10.00 uM): 0.237; Dose.FC.LYZ.NS (log 2 fold change) (ISC-enriched organoids [1]; Dose 10.00 uM): 0.027; Dose.FC.LYZ.S (log 2 fold change) (ISC-enriched organoids [2]; Dose 0.08 uM): 0.050; Dose.FC.LYZ.S (log 2 fold change) (ISC-enriched organoids [2]; Dose 0.40 uM): 0.069; Dose.FC.LYZ.S (log 2 fold change) (ISC-enriched organoids [2]; Dose 2.00 uM): 0.019; Dose.FC.LYZ.S (log 2 fold change) (ISC-enriched organoids [2]; Dose 10.00 uM): 0.039; Z.CTG (standard z score) (ISC-enriched organoids [3]; Dose 0.08 uM, primary screen): 1.011; Dose.FC.CTG (log 2 fold change) (ISC-enriched organoids [3]; Dose 0.08 uM, primary screen): 0.423; Z.CTG (standard z score) (ISC-enriched organoids [3]; Dose 0.40 uM, primary screen): 0.157; Dose.FC.CTG (log 2 fold change) (ISC-enriched organoids [3]; Dose 0.40 uM, primary screen): 0.066; Z.CTG (standard z score) (ISC-enriched organoids [3]; Dose 2.00 uM, primary screen): 0.659; Dose.FC.CTG (log 2 fold change) (ISC-enriched organoids [3]; Dose 2.00 uM, primary screen): 0.276; Z.CTG (standard z score) (ISC-enriched organoids [3]; Dose 10.00 uM, primary screen): 0.505; Dose.FC.CTG (log 2 fold change) (ISC-enriched organoids [3]; Dose 10.00 uM, primary screen): 0.211
